Measurements: US10442791B2, “DNA-PK inhibitors” (Vertex Pharmaceuticals Incorporated, priority 2012, dated 2019)

What was measured:
Assay type in all cases: cell-based
[1] = system: DU4475; assay: Cell viability following irradiation (CellTiter-Glo), DU4475; settings: DU4475 (Breast Cancer), viability at 6 days
Description: (§1) To evaluate the radiosensitizing effects of compounds of the invention in combination with ionizing radiation (IR), a broad panel of cell lines across multiple tumor types and genetic backgrounds were tested. Cells were incubated with DMSO or compound 578 for 30 minutes and then exposed to various doses of radiation (0, 0.5, 1, 2, 4, 6, 8, and 16 Gy). Cell viability was assessed at 6 days using CellTiter-Glo® (Promega, Inc).

[2] = system: Colo-205; assay: Cell viability following irradiation (CellTiter-Glo), Colo-205; settings: Colo-205 (Colorectal Cancer), viability at 6 days
Description: as §1

[3] = system: LS411N; assay: Cell viability following irradiation (CellTiter-Glo), LS411N; settings: LS411N (Colorectal Cancer), viability at 6 days
Description: as §1

[4] = system: HT1080; assay: Cell viability following irradiation (CellTiter-Glo), HT1080; settings: HT1080 (Fibrosarcoma), viability at 6 days
Description: as §1

[5] = system: H1299; assay: Cell viability following irradiation (CellTiter-Glo), H1299; settings: H1299 (Lung Cancer), viability at 6 days
Description: as §1

[6] = system: DNA-PK null SCID mouse cell line; assay: Cell viability following irradiation (CellTiter-Glo), SCID; settings: for EC50 IR: SCID (SCID Tumor, DNA-PK null), viability at 6 days
Description: as §1

[7] = system: human fibroblast cell lines (HFL1, IMR90 and MRC5), ARPE19, NHBE, SAEC; assay: Cell viability following irradiation, normal cell lines; settings: exception: HS68
Description: as §1

EC50 IR ([2]; compound 578 0.7 μM + IR): 0.7 Gy | EC50 IR ([2]; compound 578 2.1 μM + IR): 0.7 Gy | EC50 IR ([4]; compound 578 0.7 μM + IR): 1.9 Gy | EC50 IR ([4]; compound 578 2.1 μM + IR): 0.9 Gy | EC50 IR ([5]; compound 578 0.7 μM + IR): 1.1 Gy | EC50 IR ([5]; compound 578 2.1 μM + IR): 1.5 Gy
Structure (SMILES): CNC(=O)c1ccnc2c([C@H](C)CNc3cc(-c4cnc(C)nc4)ncn3)cccc12 [Compound 578, (S)—N-methyl-8-(1-((2′-methyl-[4,5′-bipyrimidin]-6-yl)amino)propan-2-yl)quinoline-4-carboxamide]
EC50 IR ([1]; compound 578 0.7 μM + IR): <0.5 Gy | EC50 IR ([1]; compound 578 2.1 μM + IR): <0.5 Gy | EC50 IR ([3]; compound 578 0.7 μM + IR): 2.3 Gy | EC50 IR ([3]; compound 578 2.1 μM + IR): 1.9 Gy | EC50 IR ([6]; compound 578 0.7 μM + IR): 2.8 Gy | EC50 IR ([6]; compound 578 2.1 μM + IR): 3.1 Gy | effect on cell viability ([6]; as a single agent or in combination with radiation, DNA-PK null SCID mouse cell line): minimal effect on cell viability | radiosensitization [7]: only marginal radiosensitization
